# Results taken from patent US20030181401A1, “Insulin secretion promoter” (KYOWA HAKKO KOGYO CO., LTD., priority 2002, published 2003).
# Several values for one entry are separate records, joined by “and”; a condition that tells them apart may be missing. Equal entries are not always repeated.
# Tests used:
# Format in all cases: in vivo
# [1] = tested on: STZ-induced diabetic rats (Wistar); test: Test Example 9: serum insulin in glucose tolerance test, Type I diabetes mellitus model
# Protocol: Male 7-week-old Wistar rats (Japan SLC, Inc.) were fed CE-2 (Clea Japan, Inc.) for one week, so as to accustom the rats to the environment.
# After 18-hour starvation of the accustomed rats, […] of 50 mM citrate buffer, pH 4.5containing 15 mg of streptozotocin (WAKO Pure Chemical Industries, Inc.; abbreviated as “STZ” hereinafter) was prepared and administered to 25 mg (STZ)/kg body weight from their tail vein. Five days after the STZ administration, the rats were fasted for 18 hours. Blood was taken from puncture in the tail vein to assay blood glucose with a simple-type blood glucose assay apparatus Medisafe Reader GR-101 (Terumo, Co., Ltd.), to select 5 rats (Nos. 1, 3, 4, 5, 8) at mild state of diabetes mellitus with a blood glucose level of 200 mg/dl or less.
# An aqueous 2% solution of 2′-fucosyllactose was prepared and administered to the rat No. 1 from the tail vein to 50 mg/kg body weight on a 2′-FL dose basis. 0.9% physiological saline was administered to rats Nos. 3, 4, 5 and 8. […] Zero minute and 30, 60, 120, and 240 minutes after glucose loading, blood was taken from a tail vein, to assay blood glucose with Medisafe Reader GR-101 and collect the serum.
# 12 days after the STZ dosing, the rats were fasted for 18 hours. […] Zero minute and 30, 60, 120, and 240 minutes after glucose loading, blood was taken from a tail vein, to assay blood glucose with Medisafe Reader GR-101 and collect the serum.
# Insulin in the serum was assayed by enzyme immunoassay using Morinaga ultra-sensitive rat insulin assay kit (Morinaga Biochemical Research Institute, Co., Ltd.) in the same manner as in Test Example 8. Additionally, a standard curve was prepared by diluting […] of the standard insulin (rat) attached to the kit with 100 μl of saline to use the resulting 25.6 ng/ml insulin solution as the standard solution, diluting the standard solution appropriately with the diluent attached to the kit for the same reaction as for the serum, and plotting the relation between the concentration and the absorbance at the principal wave length of 450 nm and at the sub wave length of 655 nm. […]
# [2] = tested on: ICR mice; test: Test Example 8: blood glucose in glucose tolerance test after single oral 2′-FL dose
# Protocol: Groups of male 8-week-old ICR mice (Japan SLC, Inc.) each consisting of 6 mice were fed CE-2 (Clea Japan, Inc.) for one week, so as to accustom the animals to the environment.
# Then, the mice accustomed were fasted for 18 hours. An aqueous 2% solution of 2′-FL was orally administered to the mice to 100 mg (2′-FL)/kg body weight, while 0.9% saline was administered orally to the control group. Two hours after the 2′-FL dosing, an aqueous 40% glucose solution was orally administered to 2 g (glucose)/kg body weight to the mice, for glucose tolerance test. […] Blood glucose was assayed with a simple-type blood glucose assay apparatus Medisafe Reader GR-101 (Terumo, Co., Ltd.), while the serum was collected.
# [3] = tested on: ICR mice; test: Test Example 2: serum insulin in glucose tolerance test after 7-day oral dosing, normal mice
# Protocol: Eleven male 9-week-old ICR mice as normal mice (SLC, Inc.) were fed a commercially available CE-2 (Clea Japan, Inc.) for one week, so as to accustom the mice to the environment.
# After acclimation, an aqueous 10% solution of 2′-fucosyllactose was orally administered to the mice at 200 mg (2′-FL)/kg body weight in the morning and at 300 mg (2′-FL)/kg body weight in the evening. The same volume of saline was administered to the control group. The aqueous 2′-FL solution and saline were both dosed daily to the mice for 7 days.
# During the dosing period, CE-2 was given together with drinking water ad libitum. […]
# After the reaction, the plate was rinsed four times with the rinse solution. […] The absorbance of the reaction solution in the wells at 450 nm was read with a plate reader. Herein, a standard curve was prepared by using the standard insulin solution (mice, 200 ng/ml) attached to the kit as a standard solution to dilute the standard solution appropriately with the buffer solution attached to the kit for the same reaction as for the serum, and plotting the relation between the concentration and the absorbance (450 nm). Based on the prepared standard curve and the absorbance from the reaction with the serum, the insulin concentration in the serum was determined.
substance,measurement,setting,value
2′-fucosyllactose [2′-FL],serum insulin concentration via glucose loading (in words),"[1]; STZ-induced diabetic rats, glucose loading 2 hours after intravenous dosing",increased
same,"Serum insulin concentration, 0 minute","[1]; individual STZ rats Nos. 1, 3, 4, 5, 8, 50 mg/kg intravenous two hours before glucose 1 g/kg oral, 0 minute after glucose loading, 50 mg/kg",125.8 pg/mL and 697.0 pg/mL and 197.4 pg/mL and 180.4 pg/mL and 312.5 pg/mL
same,"Serum insulin concentration, 30 minutes","[1]; individual STZ rats Nos. 1, 3, 4, 5, 8, 50 mg/kg intravenous two hours before glucose 1 g/kg oral, 30 minutes after glucose loading, 50 mg/kg",331.1 pg/mL and 586.6 pg/mL and 915.1 pg/mL and 475.5 pg/mL and 148.4 pg/mL
same,"Blood glucose level after glucose loading, 0 minute","[2]; ICR mice fasted 18 hours, 100 mg/kg single oral dose two hours before glucose 2 g/kg oral, 0 minute, mean ± SD",109 ± 4.4 mg/dL
same,"Blood glucose level after glucose loading, 60 minutes","[2]; ICR mice fasted 18 hours, 100 mg/kg single oral dose two hours before glucose 2 g/kg oral, 60 minutes, mean ± SD",219 ± 29 mg/dL
same,"Blood glucose level after glucose loading, 120 minutes","[2]; ICR mice fasted 18 hours, 100 mg/kg single oral dose two hours before glucose 2 g/kg oral, 120 minutes, mean ± SD",147 ± 14.2 mg/dL
same,"Blood glucose level after glucose loading, −120 minutes","[2]; ICR mice fasted 18 hours, 100 mg/kg single oral dose two hours before glucose 2 g/kg oral, −120 minutes, mean ± SD",131 ± 23.6 mg/dL
same,elevation of blood glucose level (in words),"[2]; ICR mice, single oral dosing 120 minutes before glucose dosing",suppressed
same,insulin concentration 120 minutes after glucose loading compared with the control group (in words),[3]; continuous daily oral dosing,increased
same,"Serum insulin concentration after glucose loading, 120 minutes","[3]; oral 200 + 300 mg/kg daily, 7 days, glucose 2 g/kg oral, 120 minutes, mean ± SD",0.35 ± 0.24 ng/mL
